# Earlier results, collected in patent EP4582084A1, “CRYSTAL FORM OF KETOAMIDE DERIVATIVE AND PREPARATION METHOD THEREFOR” (Guangdong Raynovent Biotech Co., Ltd., priority 2022, dated 2024).
# System: novel coronavirus
# Details: in vitro, preclinical trials
smiles,measurement,value
Cn1cnc(Cn2c(=O)[nH]/c(=N\c3cc4cn(C)nc4cc3Cl)n(Cc3cc(F)c(F)cc3F)c2=O)n1 [S-217622],EC50,370 nM
